From patent US12221453B2, “Substituted pyrazolo[5′,1′:2,3]pyrimido[5,4-b][1,4]oxazines as TYK2 inhibitors” (TAKEDA PHARMACEUTICAL COMPANY LIMITED, priority 2018, dated 2025)

Tested on: IL-12 induced STAT4 phosphorylation mediated by TYK2/JAK2
Assay: IL-12 induced pSTAT4 in human PBMC
Format: cell-based
Conditions: 1 hr compound, 1.7 ng/mL IL-12 for 30 minutes
Procedure, shortened: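 Thawed human PBMC were pre-incubated with compound for 1 hr at 37 °C (0.1% DMSO), then stimulated with 1.7 ng/mL IL-12 for 30 minutes. Phospho-STAT4 and total STAT4 were measured in cell lysates by MSD.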

IC50 [µM]	SMILES
< 0.1	CNc1cc(Nc2cccn([C@H]3CC[C@H](OC)CC3)c2=O)nc2c(C(=O)N[C@H]3C[C@@H]3OC)cnn12 [I-32, 5-((1-((1r,4S)-4-Methoxycyclohexyl)-2-oxo-1,2-dihydropyridin-3-yl)amino)-N-((1S,2S)-2-methoxycyclopropyl)-7-(methylamino)pyrazolo[1,5-a]pyrimidine-3-carboxamide]
< 0.1	CNc1cc(Nc2cccn([C@@H]3CC[C@@H]3O)c2=O)nc2c(C(=O)N[C@H]3CCC3(F)F)cnn12 [Compound I-290]
< 0.1	CNc1cc(Nc2cccn([C@@H]3CCC[C@@H]3O)c2=O)nc2c(C(=O)NC3CCC3(F)F)cnn12 (stereo partly shown) [Compound I-303]
< 0.1	CNc1cc(Nc2cccn([C@H]3CC[C@@H](OC)CC3)c2=O)nc2c(C(=O)N[C@@H]3CC[C@@]3(C)OC)cnn12 [Compound I-431]
< 0.1	CNc1cc(Nc2cccn([C@@H]3CCCC[C@@H]3O)c2=O)nc2c(C(=O)N[C@@H]3CC[C@H]3F)cnn12 [Compound I-211]
< 0.1	CNc1cc(Nc2cccn(C3COC3)c2=O)nc2c(C(=O)NC3CC[C@@H]3F)cnn12 (stereo partly shown) [Compound I-163]
< 0.1	CNc1cc(Nc2cccn([C@H]3CC[C@H]3O)c2=O)nc2c(C(=O)N[C@H]3CCC3(F)F)cnn12 [Compound I-287]
< 0.1	CNc1cc(Nc2cccn(-c3ccccn3)c2=O)nc2c(C(=O)NC3CC[C@@H]3F)cnn12 (stereo partly shown) [Compound I-200]
< 0.1	CNc1cc(Nc2cccn([C@H]3C[C@H](OC)C3)c2=O)nc2c(C(=O)NC3CCC3(F)F)cnn12 (stereo partly shown) [Compound I-292]
< 0.1	CNc1cc(Nc2cccn([C@@H]3CCCOC3)c2=O)nc2c(C(=O)N[C@@H]3CC[C@H]3F)cnn12 [Compound I-196]
< 0.1	CNc1cc(Nc2cccn([C@H]3C[C@H](F)C3)c2=O)nc2c(C(=O)NC3CCC3(F)F)cnn12 (stereo partly shown) [Compound I-283]
< 0.1	CNc1cc(Nc2cccn([C@H]3[C@@H]4COC[C@@H]43)c2=O)nc2c(C(=O)N[C@@H]3CC[C@@]3(C)OC)cnn12 [Compound I-410]
< 0.1	CNc1cc(Nc2cccn(C3COC3)c2=O)nc2c(C(=O)NC3CCC3(F)F)cnn12 (stereo not shown) [Compound I-280]
< 0.1	CNc1cc(Nc2cccn(C3CCOCC3)c2=O)nc2c(C(=O)N[C@@H]3CC[C@H]3F)cnn12 [Compound I-190]
< 0.1	CNc1cc(Nc2cccn(-c3ocnc3C)c2=O)nc2c(C(=O)NC3CC[C@@H]3F)cnn12 (stereo partly shown) [Compound I-185]
< 0.1	CNc1cc(Nc2cccn([C@@H]3CCOC[C@@H]3OC)c2=O)nc2c(C(=O)N[C@@H]3CC[C@@H]3F)cnn12 [Compound I-235]
< 0.1	CNc1cc(Nc2cccn([C@H]3CCC[C@@H](C#N)C3)c2=O)nc2c(C(=O)N[C@@H]3CC[C@H]3OC)cnn12 [Compound I-258]
< 0.1	CNc1cc(Nc2cccn([C@@H]3CCC[C@@H](OC)C3)c2=O)nc2c(C(=O)NC3CC[C@@H]3F)cnn12 (stereo partly shown) [Compound I-227]
< 0.1	CNc1cc(Nc2cccn(C3[C@H]4COC[C@@H]34)c2=O)nc2c(C(=O)NC3C[C@H]3OC)cnn12 (mixture of isomers) [I-24, 5-((1-((1R,5S,6r)-3-Oxabicyclo[3.1.0]hexan-6-yl)-2-oxo-1,2-dihydropyridin-3-yl)amino)-N-(2-methoxycyclopropyl)-7-(methylamino)pyrazolo[1,5-a]pyrimidine-3-carboxamide]
< 0.1	CNc1cc(Nc2cccn([C@H]3C[C@@H]3OC)c2=O)nc2c(C(=O)N[C@H]3CC[C@@H]3F)cnn12 [Compound I-158]
< 0.1	CNc1cc(Nc2cccn([C@@H]3CCOC[C@@H]3OC)c2=O)nc2c(C(=O)NC3CCC3(F)F)cnn12 (stereo partly shown) [Compound I-336]
< 0.1	CNc1cc(-c2cnc3n([C@@H]4COC[C@H]4O)cccc2-3)nc2c(C(=O)N[C@H]3CC[C@@H]3F)cnn12 [Compound I-830]
< 0.1	CNc1cc(Nc2cccn([C@H]3C[C@H](OC)C3)c2=O)nc2c(C(=O)N[C@H]3CC[C@@H]3OC)cnn12 [Compound I-255]
< 0.1	CNc1cc(Nc2cccn([C@H]3[C@@H]4COC[C@@H]43)c2=O)nc2c(C(=O)N[C@H]3CC[C@H]3F)cnn12 [Compound I-204]

More lines, now with the values behind:

SMILES	IC50 [µM]
CNc1cc(-c2cn([C@H]3COC[C@@H]3OC)c3ncccc23)nc2c(C(=O)N[C@@H]3CC[C@@H]3F)cnn12 [Compound I-530]	< 0.1
CNc1cc(Nc2cccn(-c3ccccn3)c2=O)nc2c(C(=O)N[C@@H]3CCC3(F)F)cnn12 [Compound I-320]	< 0.1
CNc1cc(-c2cn([C@H]3COC[C@H]3F)c3ncccc23)nc2c(C(=O)NC3CC[C@H]3O)cnn12 (stereo partly shown) [Compound I-573]	< 0.1
CNc1cc(Nc2cccn(-c3ccccn3)c2=O)nc2c(C(=O)N[C@@H]3CC[C@H]3OC)cnn12 [Compound I-264]	< 0.1
CNc1cc(-c2cnc3n([C@@H]4COC[C@H]4OC)cccc2-3)nc2c(C(=O)NC3CC[C@@H]3OC)cnn12 (stereo partly shown) [Compound I-883]	< 0.1
CNc1ccc(-c2cc(NC)n3ncc(C(=O)N[C@H]4CC[C@@H]4F)c3n2)n2ccnc12 [Compound I-481]	< 0.1
CNc1cc(-c2cn([C@@H]3CN(C)C[C@H]3F)c3ncccc23)nc2c(C(=O)N[C@H]3CC[C@@H]3OC)cnn12 [Compound I-643]	< 0.1
CNc1cc(-c2cn([C@@H]3CCOC[C@@H]3OC)c3ncccc23)nc2c(C(=O)N[C@H]3CCC3(F)F)cnn12 [Compound I-703]	< 0.1
CNc1cc(-c2cnc3n(CCCN4CCOCC4)cccc2-3)nc2c(C(=O)N[C@H]3CC[C@@H]3OC)cnn12 [Compound I-990]	< 0.1
CNc1cc(-c2cn([C@@H]3COC[C@@H]3F)c3ncccc23)nc2c(C(=O)NC3CC[C@@H]3OC)cnn12 (stereo partly shown) [Compound I-621]	< 0.1
CNc1cc(-c2cn([C@@H]3COC[C@H]3OC)c3ccccc23)nc2c(C(=O)N[C@H]3CC[C@H]3O)cnn12 [Compound I-787]	< 0.1
CC(C)n1cccc(Nc2nc3c(C(=O)NC4CCC4(F)F)cnn3c3c2OCCN3)c1=O (stereo not shown) [Compound I-765]	< 0.1
CNc1cc(-c2cnc3n([C@@H]4COC[C@H]4OC)cccc2-3)nc2c(C(=O)NC3CC[C@@H]3F)cnn12 (stereo partly shown) [Compound I-835]	< 0.1
CNc1cc(-c2cn([C@H]3C[C@@H](COC)C3)c3ncccc23)nc2c(C(=O)N[C@@H]3CC[C@@H]3O)cnn12 [Compound I-914]	< 0.1
CNc1cc(-c2cn([C@@H]3CCN(C)C3)c3ncccc23)nc2c(C(=O)NC3CCC3(F)F)cnn12 (stereo partly shown) [Compound I-686]	< 0.1
CNc1cc(-c2cn([C@@H]3COC[C@@H]3F)c3ncccc23)nc2c(C(=O)N[C@H]3CC[C@@H]3OC)cnn12 [Compound I-622]	< 0.1
CNc1cc(-c2cnc3n([C@@H]4COC[C@H]4O)cccc2-3)nc2c(C(=O)NC3CC[C@@H]3F)cnn12 (stereo partly shown) [Compound I-827]	< 0.1
CNc1cc(-c2cnc3n([C@H]4COC[C@@H]4OC)cccc2-3)nc2c(C(=O)N[C@H]3CC[C@H]3F)cnn12 [Compound I-839]	< 0.1
CNc1cc(-c2cn(C3COC3)c3ncccc23)nc2c(C(=O)N[C@H]3CC[C@H]3O)cnn12 [Compound I-555]	< 0.1

SMILES	IC50 [µM]
CNc1cc(-c2cn([C@H]3CN(C)C[C@@H]3OC)c3ncccc23)nc2c(C(=O)N[C@H]3CC[C@@H]3OC)cnn12 [Compound I-649]	< 0.1
CNc1cc(-c2cn([C@H]3COC[C@@H]3OC)c3ccccc23)nc2c(C(=O)N[C@H]3CC[C@H]3O)cnn12 [Compound I-790]	< 0.1
CNc1cc(-c2cn([C@H]3COC[C@@H]3O)c3ncccc23)nc2c(C(=O)N[C@H]3CC[C@@H]3OC)cnn12 [Compound I-631]	< 0.1
CNc1cc(-c2cn([C@@H]3CN(C)C[C@H]3OC)c3ncccc23)nc2c(C(=O)N[C@H]3CC[C@@H]3OC)cnn12 [Compound I-646]	< 0.1
CNc1cc(-c2cn([C@@H]3CCOC[C@H]3F)c3ncccc23)nc2c(C(=O)NC3CC[C@@H]3OC)cnn12 (stereo partly shown) [Compound I-652]	< 0.1
CNc1cc(-c2cn([C@@H]3COC[C@H]3O)c3ncccc23)nc2c(C(=O)N[C@H]3CCC3(F)F)cnn12 [Compound I-693]	< 0.1
CNc1cc(-c2cn([C@H]3COC[C@@H]3OC)c3ccccc23)nc2c(C(=O)N[C@H]3CC[C@@H]3OC)cnn12 [Compound I-742]	< 0.1
CNc1cc(-c2cn([C@H]3CCOC3)c3ncccc23)nc2c(C(=O)NC3CC[C@@H]3OC)cnn12 (stereo partly shown) [Compound I-612]	< 0.1
CNc1ccc(-c2cc(NC)n3ncc(C(=O)N[C@@H]4CC[C@H]4OC)c3n2)n2ccnc12 [Compound I-490]	< 0.1
CNc1cc(-c2cnc3n([C@H]4COC[C@@H]4O)cccc2-3)nc2c(C(=O)NC3CCC3(F)F)cnn12 (stereo partly shown) [Compound I-898]	< 0.1
CNc1cc(-c2cn([C@@H]3COC[C@H]3OC)c3ccccc23)nc2c(C(=O)N[C@@H]3CC[C@H]3OC)cnn12 [Compound I-746]	< 0.1
CNc1cc(-c2cn(CC(=O)N3CCCC3)c3ncccc23)nc2c(C(=O)N[C@H]3CC[C@@H]3OC)cnn12 [Compound I-965]	< 0.1
CNc1ccc(-c2cc(NC)n3ncc(C(=O)NC4CC[C@H]4O)c3n2)n2ccnc12 (stereo partly shown) [Compound I-484]	< 0.1
CNc1cc(-c2cnc3n(C4CCOCC4)cccc2-3)nc2c(C(=O)N[C@H]3CC[C@@H]3OC)cnn12 [Compound I-1014]	< 0.1
CNc1cc(-c2cnc3n(CC(C)(C)O)cccc2-3)nc2c(C(=O)N[C@H]3CC[C@@H]3OC)cnn12 [Compound I-983]	< 0.1
CNc1cc(Nc2cccn(C(C)C)c2=O)nc2c(C(=O)NC3CC[C@]3(C)O)cnn12 (stereo partly shown) [Compound I-339]	< 0.1
CNc1cc(-c2cnc3n([C@@H]4CCOC[C@H]4O)cccc2-3)nc2c(C(=O)N[C@@H]3C[C@@H]3F)cnn12 [Compound I-824]	< 0.1
CNc1cc(-c2cn([C@H]3CCOC[C@H]3OC)c3ncccc23)nc2c(C(=O)N[C@H]3CC[C@@H]3OC)cnn12 [Compound I-666]	< 0.1
